Source: US10814010B2, “FOXC2 inhibitor and methods of use thereof” (The Board of Regents of The University of Texas System, priority 2018, dated 2020)

Key:
Format in all cases: cell-based
[1] = test system: MDA-MB-231 cells; test: Western blot of FOXC2 target/non-target genes, EMT, CSC and apoptosis markers in MDA-MB-231; details: MDA-MB-231, 20 μM
Procedure: MC-1-F2's effect on FOXC2-mediated transcription was examined by measuring PDGFR-β expression levels, a downstream effector of FOXC2 (Hollier et al., 2013). […] (FIGS. 16A&B). To validate the specificity of the ligand to FOXC2, Western blot analysis was carried out on the non-target genes of FOXC2, p38 and GSK3P3.
Next, it was examined if FOXC2 inhibition by MC-1-F2 can affect EMT progression. […] It has been shown that inhibition of downstream or upstream targets of other EMT-associated transcription factors such as Snail, Slug and Twist leads to the decreased EMT progression, through the re-expression of E-cadherin (Bachelder et al., 2005; Ren et al., 2013). However, the impact of direct inhibition of EMT-associated transcription factors including FOXC2 on EMT progression has never been explored until now due to the lack of small molecule inhibitors directly targeting these transcription factors.
As EMT is known to bestow on cells CSC-like properties (Hollier et al., 2013), MC-1-F2 should be able to repress CSC characteristics in cells undergoing EMT. In order to examine the effects of MC-1-F2 on CSC properties, a Western blot analysis of MDA-MB-231 cell with and without treatment of MC-1-F2 was carried out, analyzing the CSC markers c-Myc, KLF4, and Nanog. […] In order to further evaluate the effect of MC-1-F2 on CSC properties and EMT progression, β-catenin nuclear localization was examined (FIG. 5D). β-catenin is involved in both EMT progression and acquisition of CSC properties (Kalluri & Weinberg, 2009, Schmalhofer et al., 2009). A repression of E-cadherin has shown to initiate a nuclear localization of β-catenin, leading to an initiation of several EMT signals (Schmalhofer et al., 2009). Moreover, nuclear localization β-catenin is the hallmark of an active Wnt pathway, a major pathway that contributes to CSC properties (Beck & Blanpain, 2013). […] Only nuclear fraction of β-catenin bestows CSC properties on cells.
50 μg of total protein per sample was incubated with 4× loading buffer at 100° C. for 5 min. Protein samples were then loaded into a polyacrylamide gel and subjected to SDS-PAGE. Resolved proteins were then transferred by a wet transfer method to a PVDF membrane at 100 V for 1 hour using a BioRad Mini Trans-Blot Electrophoresis Transfer Cell. Upon the completion of wet transfer, the membrane was then blocked with 5% (w/v) fat-free milk in 1× Tris-buffered saline/0.1% (v/v) Tween-20 (TBS-T) for at least 1 hour. Then incubated with the respective primary antibodies diluted in 5% BSA in 1×TBST at 4° C. overnight. The following day exposed to 1:1000 dilution of anti-mouse or anti-rabbit HRP-conjugated secondary antibodies in 5% (w/v) fat-free milk in 1×TBS-T for 1 hour at room temperature. The probed proteins were then detected for chemiluminescent signal using SuperSignal Chemiluminescent Substrate (PIERCE). Pierce antibodies: B-actin, and all other antibodies used are from cell signaling. MG132 treatment was added to cells (0.5 μM) for 1-hour incubation prior to compound treatment, no more than 24 hours total exceeded during MG132 incubation.

[2] = test system: LNCaP cells; test: Transwell invasion assay, LNCaP; details: androgen-dependent, low FOXC2 expression, 20 μM, 24 hours
Procedure: (§1) Following determination of both inhibition of EMT and CSC properties, the inhibition of the migratory and invasive capabilities of both cell lines following MC-1-F2 treatment was examined through the use of a transwell invasion assay.
(§2) Matrigel invasion chambers (Corning) were allowed to come to room temperature and allowed to rehydrate for 2 hours in a cell incubator. Cells were treated 24 hours prior to assay and starved in 2% FBS in DMEM for 2 hours prior to assay. A cell suspension containing 5×10^4 cells/mL was prepared. Chemoattractant (DMEM+10% FBS) was added to the bottom of the wells. Using forceps, the inserts were transferred inside the wells and 0.5 mL of cell suspension was immediately added. The chambers were incubated for 22 hours in a humidified tissue culture incubator. After the 22 hours, the non-invading cells were removed by scrubbing the surface of the membrane. The cells were fixated with 4% formaldehyde solution for 2 minutes at room temperature. Followed by permeabilization of the membrane with 100% MeOH for 20 minutes at room temperature. The cells were stained with 0.5% crystal violet solution and several images of the wells were then taken and total number of cells counted for analysis.

[3] = test system: PC3 cells; test: Transwell invasion assay, PC3; details: PC3, 24 hours, vs DMSO
Procedure: as §1, §2

[4] = 48 hours, non-target gene of FOXC2

N=C(N)NCCCCNc1nc(Nc2ccc(Oc3ccccc3)cc2)nc(N2CCN(c3nc(N)nc(Nc4ccc(N5CCOCC5)cc4)n3)CC2)n1 [MC-1-F2]
PDGFR-β expression levels ([1]; 24 or 48 hours): decrease in PDGFR-β expression levels | E-cadherin expression ([1]; 48 hours): increase E-cadherin expression | KLF4 expression (CSC marker) ([1]; 48 hours): decrease | MMP2 expression ([1]; 48 hours): downregulated the expression | N-cadherin expression ([1]; 48 hours): downregulation of N-cadherin | Nanog expression (CSC marker) ([1]; 48 hours): no statistical difference | Slug expression ([1]; 48 hours): decrease in other mesenchymal markers | Snail protein level ([1]; 48 hours): did not affect the protein level | Vimentin expression ([1]; 48 hours): decrease in other mesenchymal markers | ZEB1 expression ([1]; 48 hours): downregulate ZEB1 | c-Myc expression (CSC marker) ([1]; 48 hours): decrease | cytosolic fraction of β-catenin ([1]; 48 hours): increase in the cytosolic fractions | induction of apoptosis (Western blot of Bad, phospho-Bad, Bak, Bax) ([1]; 48 hours): induction of an apoptosis | nuclear fraction of β-catenin ([1]; 48 hours): decrease in the nuclear fraction | GSK3β expression levels [1, 4]: no effect on the expression levels | p38 expression levels [1, 4]: no effect on the expression levels | number of invasive cells (transwell invasion) [2]: saw to change in the number of invasive cells | invasiveness (transwell invasion) [3]: remarkable inhibition in invasiveness
